Reference: US10973912B2, “Treatment for myopathy” (Children's Medical Center Corporation, priority 2015, dated 2021)
“And” between values parts separate entries of the source, which are not always exact repeats. Identical values can stand only once. Counter-ions that a name gives are not always drawn.

How the values were obtained:
[1] = test system: ryr1b homozygous mutant zebrafish; format: in vivo, zebrafish (Danio rerio); details: for touch-evoked escape behaviors / mobility of ryr1b mutants: treated from 1 dpf, scored and genotyped at 5 dpf
Procedure: In two independent experiments, two pools of 20 larvae from heterozygous ryr1b matings were treated with DMSO or with one of three different concentrations of NIF (1.0-100.0 μg/mL) at 1 dpf and evaluated in terms of touch-evoked escape behaviors at 5 dpf (n=40). Following phenotypic scoring, all living embryos were genotyped using three-primer genomic PCR. Swimming scores for larvae genotype-confirmed as ryr1b homozygous mutants are shown as a percentage of the total number of living larvae in each dose category: 1=poor swimming; 2 or 3=moderate or wild-type swimming. NIF improved mobility of ryr1b mutants at a dose of 10 μg/mL. […] Phospho-Stat3 band intensities were normalized to β-Actin control bands and quantified in Image J (NIH).
FIGS. 12A-12C show a ketoprofen dose-response and proposed mechanistic link. […] FIG. 12B is a dose-response graph for ketoprofen (KETO). Two pools of 20 larvae from heterozygous ryr1b matings were treated with DMSO or four different concentrations of KETO (1.0-100.0 μg/mL) at 1 dpf and evaluated in terms of touch-evoked escape behaviors at 5 dpf (n=40). Following phenotypic scoring, all living embryos were genotyped using three-primer genomic PCR. Swimming scores for larvae genotype-confirmed as ryr1b homozygous mutants are shown as a percentage of the total number of living larvae in each dose category: 1=poor swimming, 2 or 3=moderate or wild-type swimming. […] Phosphorylated STATs form dimers, translocate to nuclei, and from there are associated with various transcriptional activities. Dubowitz, V. and Sewry, C. (2006) Muscle Biopsy: A Practical Approach. Elsevier-Health Sciences Division.
The relatively relaxed zebrafish was initially identified due to a spontaneous autosomal recessive mutation within the ryr1b gene^30. Specifically, ryr1b mutants carry a 4046 base pair (bp) DNA insertion in the intron between exons 48 and 49 that includes an additional 32 bp sequence found in mutant cDNA (FIG. 3)^30. Genotypes of individual embryos were examined using three-primer genomic PCR, with an expected wild-type band of 1,668 bp and a mutant band of 653 bp. Primer sequences were as follows: ryr1b #1 (forward): 5′-[…]-3′ (SEQ ID NO: 4); ryr1b #2 (reverse): 5′-[…]-3′ (SEQ ID NO: 5); and ryr1b #3 (reverse): 5′-[…]-3′ (SEQ ID NO: 6).
The primary and secondary screens only tested chemical pools and individual compounds at a single concentration (2.0 μg/mL). Although beneficial in a high-throughput context, this approach can result in false positives and false negatives. […] For analysis, pools of 20 larvae obtained from heterozygous ryr1b matings were treated in duplicate with DMSO or with one of three different concentrations of NIF (1.0-100.0 μg/mL) at 1 dpf and scored for touch-evoked escape behaviors at 5 dpf. All scored larvae were then genotyped using three-primer genomic PCR. […] Next, hit expansion was used to verify JAK-STAT as a potential molecular pathway involved in ryr1b mutant pathology. […] A higher effective dose for 5,15-DPP was consistent with the IC50 measurements reported for each compound^40,41.

[2] = test system: ryr1b homozygous mutant zebrafish; assay: Secondary screen of individual chemicals in ryr1b zebrafish (vitality: survival and touch-evoked escape behavior); format: in vivo, zebrafish (Danio rerio); set-up: key: vitality score, theoretical range 0–60; DMSO controls expected ~50; details: 2.0 μg/mL from 1 dpf, scored at 5 dpf; average of two replicates of 20 larvae from heterozygous ryr1b matings; score=(#Dead*0)+(#ryr1b*1)+(#Moderate*2)+(#Wild-type*3), max 60, expected 50 in DMSO controls
Procedure: Each scored compound represents an average of two replicates, consisting of 20 larvae from heterozygous ryr1b matings (n=40). Larvae obtained from wild-type AB matings served as positive controls. […] Significance was determined by pairwise comparisons between control and experimental pools using a Student's t-test. Vitality score=(#Dead*0)+(#ryr1b*1)+(#Moderate*2)+(#Wild-type*3). Standard deviations shown for positive and negative controls were calculated based on results from 5 and 21 independent experiments, respectively.
Primary screen. For the primary screen, twenty embryos (1 dpf) resulting from a mating of heterozygous ryr1b zebrafish were manually sorted into 48-well plates containing 250 μL embryo 1×E3 medium (5.0 mM NaCl, 0.17 mM KCl, 0.33 mM CaCl2*2H2O, 0.33 mM MgSO4*7H2O) and four pooled chemicals from the Prestwick2 chemical library. Each chemical pool was assayed in duplicate using embryos from two independent clutches, for a total of 24 distinct pools tested per plate (FIG. 1). The chemicals were dissolved to a final concentration of 2.0 μg/mL and 0.4% DMSO, which is similar to concentrations other groups have used in zebrafish studies^37,38. As a negative control, twenty embryos from each clutch were cultured without chemicals in vehicle only (0.4% DMSO) (FIG. 1). Larvae obtained from wild-type (Oregon AB) matings served as positive controls in separate plates. All plates containing embryos were incubated at 28.5° C. and maintained as initially treated for 5 days. Dead embryos were removed from wells when observed during the first 4 days of the study. On day 5, dead or “motion-dead” larvae were scored alongside living larvae.
At 5 dpf, pools were scored for their ability to improve the survival and touch-evoked escape behaviors of ryr1b homozygous mutants using the following numeric scoring system: 3=4-6 cm, fast (wild-type); 2=2-4 cm (moderate); 1=<2 cm, slow (ryr1b); 0=no movement (dead) (FIG. 2A). Survival, swimming, and combined endpoints of the primary screen were then examined for their ability to distinguish positive from negative controls. […] Taking into account both experimental replicates (n=40), hit pools contained at least 37 alive larvae on day 5 (i.e., 70-100% of the larvae assumed to be ryr1b mutants survived the duration of the study), and were selected for analysis in a secondary screen.
In the secondary screen, hit pools were separated and tested as 68 individual chemicals. Screening was performed precisely as described for the primary screen with few modifications. Embryos were raised in wells containing 750 μL 1×E3 medium, as opposed to 250 μL, although the final concentration of each compound was maintained at 2.0 μg/mL. […] Vitality scores, weighting survival and swimming ratios appropriately, were calculated as (#Dead*0)+(#ryr1b*1)+(#Moderate*2)+(#Wild-type*3). Theoretical maximum and minimum scores were 60 and 0, respectively, with an expected score of 50 in DMSO-treated controls. Secondary screen hits (P<0.05), considered “candidate” compounds, are currently being examined in dose-response and long-term studies.
The second tier of the chemical screen was performed two years following the primary screen, with a fully established ryr1b^+/− line. Healthier clutches tended to result in better survival of homozygous ryr1b mutants. Median mutant life spans more accurately adhered to the 7-15 day estimate previously published^30. Therefore, in the secondary screen, hit chemical pools were separated into individual compounds and each of 68 total compounds was examined for its ability to positively influence both ryr1b survival and motor function (referred to in combination as “vitality”). […] These included two anti-inflammatory agents (sulfasalazine and ketoprofen), two monoamine oxidase inhibitors (pargyline hydrochloride and tranylcypromine hydrochloride), and two ion channel modulators (metolazone and nimodipine).

[3] = test system: IL-6; details: in vitro; cited from earlier work
[4] = test system: satellite cell expansion and muscle generation; details: in vitro and in mice, aging and dystrophic mouse models; cited from earlier work
[5] = test system: myofiber apoptosis and muscle strength; details: mouse, in vivo; cited from earlier work
[6] = test system: IL-6; details: skeletal muscle; cited from earlier work
[7] = test system: ryr1b phenotype; details: zebrafish, in vivo; cited from earlier work

SMILES | Vitality Score [2] | further results
CC(C(=O)O)c1cccc(C(=O)c2ccccc2)c1 (stereo not drawn) [Ketoprofen] | 52.0 | touch-evoked escape behaviors / mobility of ryr1b mutants [1]: confirmed a relationship between ketoprofen and improvements in ryr1b mobility; production of IL-6 [3]: inhibits the production of IL-6 in vitro
CCCCOc1cc(C(=O)OCCN(CC)CC)ccc1N [Benoxinate hydrochloride] | 52.5 | –
Clc1ccc(COC(Cn2ccnc2)c2ccc(Cl)cc2Cl)c(Cl)c1 (stereo not drawn) [Miconazole] | 54.0 | –
CC(=O)N(CC(O)CO)c1c(I)c(C(=O)NCC(O)CO)c(I)c(C(=O)NCC(O)CO)c1I (stereo not drawn) [Iohexol] | 53.5 | –
N#C/C(=C/c1ccc(O)c(O)c1)C(=O)NCc1ccccc1 [AG490] | – | satellite cell expansion and muscle generation [4]: promotes satellite cell expansion and rescues defects in muscle generation
Clc1ccccc1CN1CCc2sccc2C1 [Ticlopidine hydrochloride] | 54.0 | –
C#CCN(C)Cc1ccccc1 [Pargyline hydrochloride] | 58.0 | myofiber apoptosis and muscle strength [5]: significantly decreases myofiber apoptosis and increases muscle strength
CN(C)C/C=C(/c1ccc(Br)cc1)c1cccnc1 [Zimelidine dihydrochloride monohydrate] | 55.0 | –
N[C@@H]1C[C@H]1c1ccccc1 [Tranylcypromine hydrochloride] | 52.0 | –
COCCOC(=O)C1=C(C)NC(C)=C(C(=O)OC(C)C)C1c1cccc([N+](=O)[O-])c1 (stereo not drawn) [Nimodipine] | 52.0 | –
O=C(O)c1cc(/N=N/c2ccc(S(=O)(=O)Nc3ccccn3)cc2)ccc1O [Sulfasalazine] | 57.0 | IL-6 release [6]: inhibit IL-6 release in skeletal muscle
CC(=O)N[C@@H](CS)C(=O)O [N-acetylcysteine] | – | effect on ryr1b phenotype [7]: shown to ameliorate select aspects of the ryr1b phenotype
Cc1ccccc1N1C(=O)c2cc(S(N)(=O)=O)c(Cl)cc2NC1C (stereo not drawn) [Metolazone] | 55.5 | –
C1=Cc2nc1cc1ccc([nH]1)c(-c1ccccc1)c1nc(cc3ccc([nH]3)c2-c2ccccc2)C=C1 [5,15-DPP, 5,15-diphenylporphyrin] | – | genotyped ryr1b larvae in treated pools (evidence of toxicity) ([1]; 5 dpf, 25% mutants expected): less than 25%; dose that improved mobility of ryr1b mutants / optimal activity ([1]; treated at 1 dpf, touch-evoked escape behaviors at 5 dpf, tested 1.0-100.0 μg/mL): 100.0 µg/mL and 100 µg/mL; touch-evoked escape behaviors / mobility of ryr1b mutants [1]: ryr1b mutants were among larvae that exhibited wild-type touch-evoked escape behaviors; satellite cell expansion and muscle generation [4]: promotes satellite cell expansion and rescues defects in muscle generation
